In patent publication US20030018176A1, “Dry acid-chitosan complexes” (priority 1999, published 2003):

How the values were obtained:
[1] = rat, in vivo
Protocol: (§1) All rats were fed a basal diet for 5 days prior to initiation of dosing on Day 0. At Day 0, animals in Groups 1 to 5 and 7 received the appropriate formulated diet. The diet was available ad libitum. […] The total amount of the diet consumed by each animal was determined every 3 to 4 days.

[2] = Fat binding feeding study in rats on formulated high fat diet
Protocol: as §1

CCCCCCCCCCC[C@@H](C[C@@H]1OC(=O)[C@H]1CCCCCC)OC(=O)[C@H](CC(C)C)NC=O [Xenical]
ALT [1]: 54 IU/L
AST [1]: 104 IU/L
Bilirubin [1]: 0.4 mg/dL
Triglycerides ([2]; blood of rats, test article in diet): 107 mg/dL
Weight Gain ([2]; rats, test article in diet ad libitum): 425 gms
